Data on 25 compounds can be found in US6873914B2, “Methods and systems for analyzing complex biological systems” (Icoria, Inc., priority 2001, dated 2005).

“Also recorded” adds a separate entry of the source.

Test [1] deals with Arabidopsis thaliana plants. Description: SOA1 phenotypic analysis of herbicide-treated Arabidopsis plants. The class given is in vivo. To be noted: for characteristic symptoms (morphological phenotype): in words; for Symptom Class: Arabidopsis sprayed with herbicide, phenotypes of the classes pictured in FIG. 12; for leafCurling (Dev.) / leafTwisting (Dev.) / leafWidth (Dev.) / matureLeafAnthocyanins (Dev.) / matureLeafChlorosis (Dev.) / matureLeafNecrosis (Dev.) / newLeafAnthocyanins (Dev.) / newLeafChlorosis (Dev.) / newLeafNecrosis (Dev.) / pointedLeaves (Dev.): numeric value standardized to mock treated plants; for tMic (Dev.): score for time required to exhibit full range of symptoms at the MIC.

For test [2], the system named is Arabidopsis thaliana. Kind of test: MOA1 biochemical (metabolite) profiling by LC-MS and GC-MS of treated Arabidopsis. To be noted: after one hour.
The next test concerns Magnaporthe grisea. The class given is cell-based.
The next test has as its system PSI, PROTOX. Kind of test: PSI / PROTOX inhibition (unpublished data).
Test [3] deals with Arabidopsis thaliana. Description: MOA1 gene expression profiling (22,000 gene array) of treated Arabidopsis. It is filed as in vivo. To be noted: for No. of Lethal Genes Altered: regulated genes identified as essential for plant growth and development (internal database); for gene expression perturbations compared to the other treatments: MOA1, 1 hr.
For test [4], the system named is Arabidopsis thaliana. Kind of test: MOA1 phenotypic profiling of Arabidopsis sprayed with unknown and commercial herbicides. The class given is in vivo. Conditions: in words.
The subject of test [5] is Saccharomyces cerevisiae wild type strain BY4743. Description: AF1 metabolite analysis (GC-MS, LC-MS) of yeast cells treated with antifungal drugs. The class given is cell-based.

For `O=C(O)c1cc(Oc2ccc(C(F)(F)F)cc2Cl)ccc1[N+](=O)[O-]` [Acifluorfen], in test [1], the “characteristic symptoms (morphological phenotype)” value is “Necrotic leaf flecks”.
Take `O=C(O)CNCP(=O)(O)O` [Glyphosate]: in test [1], the “Symptom Class” value was 4, the “characteristic symptoms (morphological phenotype)” value is recorded as “anthocyanin accumulation in the older leaves accompanied by chlorosis of the newly emerging leaves”, the “leafCurling (Dev.)” value is listed as 0 and the “leafTwisting (Dev.)” value is on record as 0. In test [1], the “leafWidth (Dev.)” value is recorded as 0, the “matureLeafAnthocyanins (Dev.)” value is 3, the “matureLeafChlorosis (Dev.)” value is reported as 1 and the “matureLeafNecrosis (Dev.)” value is 3. In test [1], the “newLeafAnthocyanins (Dev.)” value stood at 1, the “newLeafChlorosis (Dev.)” value was found to be 2, the “newLeafNecrosis (Dev.)” value was found to be 0 and the “pointedLeaves (Dev.)” value was 1. For the same compound, in test [1], the “tMic (Dev.)” value is 2. Besides, the “tyrosine (downstream metabolite) relative to the control” value in the test on Arabidopsis thaliana [2] is reported as “decreased”. Also, in the test with Magnaporthe grisea, the “M. grisea growth with nitrate, nitrite, or glutamate as the sole nitrogen source” value is on record as “inhibited growth”. Further, in the test on Magnaporthe grisea (250 μg/ml), the “Growth of M. grisea with ammonium or glutamine as nitrogen source, Tier 4” value is listed as “Little growth defect”; the “M. grisea growth results for Tiers 3 and 4” value is listed as “nearly identical as compared to Unknown 4”. Moreover, the “M. grisea growth inhibition, effect of aromatic amino acids in the media” value with Magnaporthe grisea (1.0 mg/ml) was “remediated by inclusion of aromatic amino acids”.
On to `CCNc1nc(Cl)nc(NC(C)C)n1` [Atrazine], for which the “characteristic symptoms (morphological phenotype)” value in test [1] was “rapid and widespread leaf necrosis”.
For `O=C(O)COc1ccc(Cl)cc1Cl` [2,4-D], in test [1], the “Symptom Class” value was 5, the “leafCurling (Dev.)” value is recorded as 1, the “leafTwisting (Dev.)” value came to 2 and the “leafWidth (Dev.)” value is on record as −1. Further, in test [1], the “matureLeafAnthocyanins (Dev.)” value came out at 1, the “matureLeafChlorosis (Dev.)” value is given as 2, the “matureLeafNecrosis (Dev.)” value came to 0 and the “newLeafAnthocyanins (Dev.)” value was found to be 0. Further, in test [1], the “newLeafChlorosis (Dev.)” value came out at 1, the “newLeafNecrosis (Dev.)” value was found to be 0, the “pointedLeaves (Dev.)” value amounted to 0 and the “tMic (Dev.)” value was 2.
In the case of `CCc1cccc(C)c1N(C(=O)CCl)C(C)COC` (centres unmarked) [Metolachlor], the “PSI or PROTOX inhibitor” value with PSI, PROTOX was “neither a PSI nor a PROTOX inhibitor”.
Turning to `c1cc[n+]2c(c1)-c1cccc[n+]1CC2` [Diquat], in test [1], the “Symptom Class” value is given as 7; the “characteristic symptoms (morphological phenotype)” value was “rapid and widespread leaf necrosis”; the “leafCurling (Dev.)” value is 2; the “leafTwisting (Dev.)” value is given as 0. In addition, in test [1], the “leafWidth (Dev.)” value is −2, the “matureLeafAnthocyanins (Dev.)” value was 0, the “matureLeafChlorosis (Dev.)” value was 1 and the “matureLeafNecrosis (Dev.)” value is listed as 4. Also, in test [1], the “newLeafAnthocyanins (Dev.)” value is on record as 0, the “newLeafChlorosis (Dev.)” value was 1, the “newLeafNecrosis (Dev.)” value was found to be 4 and the “pointedLeaves (Dev.)” value amounted to 1. Besides, the “tMic (Dev.)” value in test [1] was determined as 2.
With `C[n+]1ccc(-c2cc[n+](C)cc2)cc1` [Paraquat], in test [1], the “Symptom Class” value stood at 7; the “characteristic symptoms (morphological phenotype)” value was “rapid and widespread leaf necrosis”.
Consider `CN(C)C(=O)Nc1ccc(Cl)c(Cl)c1` [Diuron], for which, in test [1], the “Symptom Class” value was found to be 7; the “characteristic symptoms (morphological phenotype)” value was “rapid and widespread leaf necrosis”; the “leafCurling (Dev.)” value is reported as 1; the “leafTwisting (Dev.)” value is reported as 0. In test [1], the “leafWidth (Dev.)” value is listed as −2, the “matureLeafAnthocyanins (Dev.)” value was 0, the “matureLeafChlorosis (Dev.)” value was 2 and the “matureLeafNecrosis (Dev.)” value is listed as 4. In test [1], the “newLeafAnthocyanins (Dev.)” value was found to be 0, the “newLeafChlorosis (Dev.)” value is 2, the “newLeafNecrosis (Dev.)” value is given as 4 and the “pointedLeaves (Dev.)” value was 1. For the same compound, the “tMic (Dev.)” value in test [1] was 1.
In the case of `COc1nc(C)nc(NC(=O)NS(=O)(=O)c2ccccc2Cl)n1` [Chlorsulfuron], the “No. of Lethal Genes Altered” value in the test with Arabidopsis thaliana [3] is 8. Further, the “characteristic symptoms (morphological phenotype)” value in test [1] was “anthocyanin accumulation in the older leaves accompanied by chlorosis of the newly emerging leaves”.
As to `CCSC(=O)N(CC(C)C)CC(C)C` [Butylate], in the test on Arabidopsis thaliana [4], the “phenotype / hierarchical cluster analysis of the eleven phenotypic characteristics” value is on record as “neither showed a strong herbicidal phenotype”.
Consider `CC[C@@H]([C@H](C)O)n1ncn(-c2ccc(N3CCN(c4ccc(OC[C@@H]5CO[C@@](Cn6cncn6)(c6ccc(F)cc6F)C5)cc4)CC3)cc2)c1=O` [Posaconazoie], for which the “Fold Change” value in test [5] (metabolite luteolin, platform LC) is given as 0.
With `CC(C)C1(C)N=C(c2ncccc2C(=O)O)NC1=O` (centres unmarked) [Imazapyr], the “characteristic symptoms (morphological phenotype)” value in test [1] was “anthocyanin accumulation in the older leaves accompanied by chlorosis of the newly emerging leaves”.
`CC[C@@H]([C@H](C)O)n1ncn(-c2ccc(N3CCN(c4ccc(OC[C@@H]5CO[C@@](Cn6cncn6)(c6ccc(F)cc6F)C5)cc4)CC3)cc2)c1=O` [Posaconazote]: in test [5] (detected metabolite, platform nLC, p-Value 1), the “Fold Change, porphobilinogen” value turned out to be 0.
For `COC(=O)c1cc(Oc2ccc(Cl)cc2Cl)ccc1[N+](=O)[O-]` [Bifenox], in test [1], the “characteristic symptoms (morphological phenotype)” value was “Necrotic leaf flecks”.
For `OC(Cn1cncn1)(Cn1cncn1)c1ccc(F)cc1F` [Fluconazole], in test [5] (LC), the “Fold Change: abscisic acid” value worked out at 0 and the “Fold Change: adenosine” value is 0.
Turning to `Nc1nc[nH]n1` [Amitrole], the “characteristic symptoms (morphological phenotype)” value in test [1] was “leaf bleaching and leaf enlargement”. Also, the “phenotype / hierarchical cluster analysis of the eleven phenotypic characteristics” value in the test on Arabidopsis thaliana [4] is “exhibited chlorosis and not true bleaching”.
In the case of `CP(=O)(O)CCC(N)C(=O)O` (centres unmarked) [Glufosinate], the “No. of Lethal Genes Altered” value in the test with Arabidopsis thaliana [3] is reported as 10. In test [1], the “Symptom Class” value was 3; the “characteristic symptoms (morphological phenotype)” value is “Chlorosis and leaf curling”; the “leafCurling (Dev.)” value is given as 2; the “leafTwisting (Dev.)” value was 1. Also, in test [1], the “leafWidth (Dev.)” value is recorded as −2, the “matureLeafAnthocyanins (Dev.)” value came out at 0, the “matureLeafChlorosis (Dev.)” value amounted to 3 and the “matureLeafNecrosis (Dev.)” value is 0. Besides, in test [1], the “newLeafAnthocyanins (Dev.)” value stood at 0, the “newLeafChlorosis (Dev.)” value was found to be 3, the “newLeafNecrosis (Dev.)” value came out at 0 and the “pointedLeaves (Dev.)” value is listed as 1. For the same compound, the “tMic (Dev.)” value in test [1] turned out to be 1.
Consider `CC(C)N1C(=O)c2ccccc2NS1(=O)=O` [Bentazon], for which the “characteristic symptoms (morphological phenotype)” value in test [1] was “rapid and widespread leaf necrosis”.
Turning to `O=C(O)c1ccccc1C(=O)Nc1cccc2ccccc12` [Naptalam], in the test on Arabidopsis thaliana [3], the “gene expression perturbations compared to the other treatments” value is given as “fewest gene expression perturbations” and the “No. of Lethal Genes Altered” value amounted to 3.
In the case of `CS(=O)(=O)c1cc(C(F)(F)F)ccc1C(=O)c1cnoc1C1CC1` [Isoxaflutole], the “No. of Lethal Genes Altered” value in the test with Arabidopsis thaliana [3] came out at 15. Besides, the “tyrosine and phenylalanine relative to the control” value in the test on Arabidopsis thaliana [2] is “up-regulated; also recorded: began to accumulate”. For the same compound, the “M. grisea growth in minimal media” value with Magnaporthe grisea (concentration insufficient to inhibit growth) is “unaffected”. Further, the “M. grisea growth in minimal plus tyrosine (sole nitrogen source) media” value with Magnaporthe grisea (concentration insufficient to inhibit growth (sub-inhibitory)) is “inhibited”.
As to `CC[C@@H]([C@H](C)O)n1ncn(-c2ccc(N3CCN(c4ccc(OC[C@@H]5CO[C@@](Cn6cncn6)(c6ccc(F)cc6F)C5)cc4)CC3)cc2)c1=O` [Posaconazole], the “Fold Change” value in test [5] (metabolite anthranilic acid, platform nLC) is listed as 0; in test [5] (metabolite anthranilic acid, platform pLC) it was 0; in test [5] (metabolite biotin, platform LC), 0.
Regarding `COC(=O)NS(=O)(=O)c1ccc(N)cc1` [Asulam], in the test with Arabidopsis thaliana [3], the “gene expression perturbations compared to the other treatments” value is “fewest gene expression perturbations” and the “No. of Lethal Genes Altered” value is recorded as 5.
In the case of `CCc1cnc(C2=NC(C)(C(C)C)C(=O)N2)c(C(=O)O)c1` (centres unmarked) [Imazethapyr], in test [1], the “characteristic symptoms (morphological phenotype)” value was “anthocyanin accumulation in the older leaves accompanied by chlorosis of the newly emerging leaves”.
Consider `CC(C)OC(=O)Nc1cccc(Cl)c1` [Chloropropham], for which the “phenotype / hierarchical cluster analysis of the eleven phenotypic characteristics” value in the test with Arabidopsis thaliana [4] is “neither showed a strong herbicidal phenotype”.
Regarding `CSc1nnc(C(C)(C)C)c(=O)n1N` [Metribuzin], in test [1], the “characteristic symptoms (morphological phenotype)” value was “rapid and widespread leaf necrosis”.
